In one series the test system is 403 WT human kinases. The series is described as follows: DiscoverX scanMAX kinome-wide selectivity at 1 μM. Type of series: binding.
The target of series [1] is T1, PIKfyve (Homo sapiens, UniProt Q9Y2I7). The experiment in a line: cell-based.
Another series relates to MHV-nLuc virus. The experiment in a line: microbe, parasite or virus in culture. In kind it is cell-based, mouse hepatitis virus (MHV).
The subject of another series is SARS-CoV-2-nLuc. The series is described as follows: microbe, parasite or virus in culture. In kind it is cell-based. The note with it: Severe acute respiratory syndrome coronavirus 2, A549-ACE2, 46 h, read-out: SARS-CoV-2 replication IC50.
For series [2], the target named is T1, PIKfyve. The series is described as follows: biochemical. Type of series: biochemical.
Another series concerns DBT cells. The experiment in a line: LDH cell viability assay in DBT cells. Type of series: cell-based, mouse. Conditions: up to 10 μM.
The test system of series [3] is His6-SARS-CoV-2 spike protein uptake by HEK293T-ACE2 cells. The series is described as follows: Spike uptake assay in HEK293T-ACE2 cells. Type of series: cell-based, human. The note with it: 1 μM.
Series [4] concerns lentivirus pseudotyped with the SARS-CoV-2 spike glycoprotein. In kind it is cell-based. The note with it: Calu-3 cells, 1 μM.
In another series the test system is bald GFP lentivirus. In kind it is cell-based. The note with it: Calu-3 cells, 1 μM.
For the next series, the system named is SH-SY5Y cells. The experiment in a line: Lysosomal staining. Type of series: cell-based, human. The note with it: 5 μM, 24 h.
Series [5] relates to small panel of understudied kinases. The series is described as follows: Eurofins enzymatic profiling in targeted kinase panel. In kind it is biochemical, human. The note with it: 1 μM, Table S2 panel.
In series [6] the test system is His6-SARS-CoV-2 spike protein uptake by Calu-3 cells. The experiment in a line: Spike uptake assay in Calu-3 cells. In kind it is cell-based. The note with it: 1 μM.
For series [7], the system named is His6-SARS-CoV-2 spike protein uptake by Caco-2 cells. The experiment in a line: Spike uptake assay in Caco-2 cells. Type of series: cell-based. The note with it: 1 μM.
The target in a further series is T2, MYLK4 (Homo sapiens, UniProt Q86YV6).
T2 sequence (Q86YV6 1-388): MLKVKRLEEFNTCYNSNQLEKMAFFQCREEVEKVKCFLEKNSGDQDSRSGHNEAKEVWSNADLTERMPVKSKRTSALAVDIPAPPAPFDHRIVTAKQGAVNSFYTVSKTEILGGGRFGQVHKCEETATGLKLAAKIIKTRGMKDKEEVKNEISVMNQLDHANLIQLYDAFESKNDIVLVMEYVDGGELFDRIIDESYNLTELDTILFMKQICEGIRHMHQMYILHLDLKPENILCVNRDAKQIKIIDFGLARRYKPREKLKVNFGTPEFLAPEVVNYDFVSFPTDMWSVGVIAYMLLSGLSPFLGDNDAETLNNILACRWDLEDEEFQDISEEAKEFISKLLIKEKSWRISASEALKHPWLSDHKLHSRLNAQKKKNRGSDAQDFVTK
The series is described as follows: NanoBRET assay. In kind it is cell-based.

Where [8] appears, read: PIKfyve NB IC50, NanoBRET, HEK293 cells.

SMILES strings stand for the structures.

T1 sequence (Q9Y2I7 whole entry): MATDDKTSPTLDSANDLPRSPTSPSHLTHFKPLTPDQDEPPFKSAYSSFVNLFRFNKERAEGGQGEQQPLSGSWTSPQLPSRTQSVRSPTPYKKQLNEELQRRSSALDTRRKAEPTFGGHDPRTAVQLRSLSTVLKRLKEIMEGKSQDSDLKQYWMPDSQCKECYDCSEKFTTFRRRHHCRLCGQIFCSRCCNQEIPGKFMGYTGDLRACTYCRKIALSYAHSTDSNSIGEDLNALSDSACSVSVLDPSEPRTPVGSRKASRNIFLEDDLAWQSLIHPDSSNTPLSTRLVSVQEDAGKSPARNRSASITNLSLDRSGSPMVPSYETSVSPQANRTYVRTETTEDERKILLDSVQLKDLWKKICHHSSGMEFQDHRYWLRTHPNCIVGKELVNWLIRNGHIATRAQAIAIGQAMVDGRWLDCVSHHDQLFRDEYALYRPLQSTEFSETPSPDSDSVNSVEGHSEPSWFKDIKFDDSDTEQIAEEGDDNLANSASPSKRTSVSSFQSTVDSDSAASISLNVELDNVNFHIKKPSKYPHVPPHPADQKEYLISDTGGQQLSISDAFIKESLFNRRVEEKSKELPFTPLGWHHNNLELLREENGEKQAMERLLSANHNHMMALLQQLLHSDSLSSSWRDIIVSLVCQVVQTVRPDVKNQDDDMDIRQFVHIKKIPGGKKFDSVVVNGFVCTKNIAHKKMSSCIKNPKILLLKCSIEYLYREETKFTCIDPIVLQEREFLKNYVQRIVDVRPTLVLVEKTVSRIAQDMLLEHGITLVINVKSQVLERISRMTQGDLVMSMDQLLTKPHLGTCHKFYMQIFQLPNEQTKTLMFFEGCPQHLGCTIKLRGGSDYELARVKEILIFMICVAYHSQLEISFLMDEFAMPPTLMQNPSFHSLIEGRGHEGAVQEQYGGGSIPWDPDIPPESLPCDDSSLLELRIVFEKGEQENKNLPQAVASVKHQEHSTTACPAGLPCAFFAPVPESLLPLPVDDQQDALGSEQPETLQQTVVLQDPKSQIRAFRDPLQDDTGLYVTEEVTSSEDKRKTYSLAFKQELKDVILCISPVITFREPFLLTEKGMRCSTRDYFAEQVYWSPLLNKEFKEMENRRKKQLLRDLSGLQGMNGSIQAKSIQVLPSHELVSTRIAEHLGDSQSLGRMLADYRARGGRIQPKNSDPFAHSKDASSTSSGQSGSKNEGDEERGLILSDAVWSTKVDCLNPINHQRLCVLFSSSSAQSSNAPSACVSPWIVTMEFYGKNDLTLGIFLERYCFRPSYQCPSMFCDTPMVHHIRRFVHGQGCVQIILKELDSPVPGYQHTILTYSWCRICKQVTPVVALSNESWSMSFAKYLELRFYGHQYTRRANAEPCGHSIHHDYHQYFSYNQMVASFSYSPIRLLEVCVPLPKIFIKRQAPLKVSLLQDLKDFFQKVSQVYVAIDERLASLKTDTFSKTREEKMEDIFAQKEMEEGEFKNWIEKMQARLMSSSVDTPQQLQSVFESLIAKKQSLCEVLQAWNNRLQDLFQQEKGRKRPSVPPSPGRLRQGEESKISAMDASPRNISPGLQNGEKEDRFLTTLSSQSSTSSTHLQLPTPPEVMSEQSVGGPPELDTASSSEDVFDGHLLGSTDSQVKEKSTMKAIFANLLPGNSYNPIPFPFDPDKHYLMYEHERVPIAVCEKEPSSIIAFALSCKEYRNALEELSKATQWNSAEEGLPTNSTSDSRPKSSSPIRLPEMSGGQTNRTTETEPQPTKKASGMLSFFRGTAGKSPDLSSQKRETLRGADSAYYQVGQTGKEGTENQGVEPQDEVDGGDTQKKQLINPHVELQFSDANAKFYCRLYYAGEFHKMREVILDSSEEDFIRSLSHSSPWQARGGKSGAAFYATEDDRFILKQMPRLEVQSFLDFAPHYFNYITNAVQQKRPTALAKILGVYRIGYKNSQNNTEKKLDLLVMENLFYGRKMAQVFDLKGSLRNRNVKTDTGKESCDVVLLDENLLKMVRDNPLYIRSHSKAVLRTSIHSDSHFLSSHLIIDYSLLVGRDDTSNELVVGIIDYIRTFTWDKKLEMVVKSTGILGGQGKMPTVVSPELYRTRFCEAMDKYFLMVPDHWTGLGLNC

On to `CC(C)(O)C#Cc1ccc2[nH]cc(-c3ccnc(N)n3)c2c1` [compound 3, 4-(3-(2-Aminopyrimidin-4-yl)-1H-indol-5-yl)-2-methylbut-3-yn-2-ol], for which the “# scanMAX kinases with PoC < 10” value in the series on 403 WT human kinases came out at 34.
`CCC(O)(C#Cc1ccc2[nH]c3c(c2c1)-c1nc(N)ncc1CCC3)CC` [compound 26, 1-(2-Amino-5,6,7,8-tetrahydropyrimido[4′,5′:3,4]cyclohepta[1,2-b]indol-11-yl)-3-ethylpent-1-yn-3-ol]: the IC50 is less than 20 nM on PIKfyve [1] (setting [8]); 74.1 nM in the series with MHV-nLuc virus (Murine coronavirus, read-out: MHV replication pIC50 (converted)); 23.9 nM in the series with SARS-CoV-2-nLuc.
`CCC(C)(O)C#Cc1ccc2[nH]c3c(c2c1)-c1nc(N)ncc1CCC3` (stereo not shown) [compound 25, 1-(2-Amino-5,6,7,8-tetrahydropyrimido[4′,5′:3,4]cyclohepta[1,2-b]indol-11-yl)-3-methylpent-1-yn-3-ol] showed an IC50 at PIKfyve [1] (setting [8]) of less than 20 nM.
On to `Nc1ncc2c(n1)-c1c([nH]c3ccc(C#Cc4ccncc4)cc13)CCC2` [compound 5, 11-(Pyridin-4-ylethynyl)-5,6,7,8-tetrahydropyrimido[4′,5′:3,4]cyclohepta[1,2-b]indol-2-amine], for which the “# scanMAX kinases with PoC < 10” value with 403 WT human kinases is on record as 5.
`Nc1ncc2c(n1)-c1c([nH]c3ccc(-c4ccc(F)cc4)cc13)CCC2` [compound 8, 11-(4-Fluorophenyl)-5,6,7,8-tetrahydropyrimido[4′,5′:3,4]cyclohepta[1,2-b]indol-2-amine]: on PIKfyve [2] (versus PIKfyve enzymatic and NanoBRET IC50 values), the “selectivity over all other kinases evaluated” value is more than 415 fold. Moreover, the “# scanMAX kinases with PoC < 10” value in the series on 403 WT human kinases was 2. In addition, in the series on MHV-nLuc virus (DBT cells), the “inhibition of viral replication (MHV-nLuc), in words” value was “inhibited viral replication”. Further, the “effect on cell viability in DBT cells” value with DBT cells is given as “no significant effect on cell viability up to 10 μM”. The “His6-SARS-CoV-2 spike protein uptake” value in series [3] is on record as “significantly reduced spike protein uptake”. Also, the “entry of lentivirus pseudotyped with SARS-CoV-2 spike glycoprotein” value in series [4] is given as “inhibition of pseudoviral entry”. For the same molecule, the “entry of bald lentivirus” value in the series on bald GFP lentivirus is recorded as “entry of bald lentivirus was not impacted”. Moreover, the “vacuoles in LysoTracker-stained cells” value in the series on SH-SY5Y cells is given as “vacuoles are present”. In addition, in series [5], the “highest inhibition of any kinase in the targeted enzymatic panel” value is not above 55%.
`Nc1ncc2c(n1)-c1c([nH]c3ccc(C#Cc4ccncc4)cc13)CCCC2` [compound 6, 12-(Pyridin-4-ylethynyl)-6,7,8,9-tetrahydro-5H-pyrimido[4′,5′:3,4]cycloocta[1,2-b]indol-2-amine]: the “# scanMAX kinases with PoC < 10” value with 403 WT human kinases was 0.
As to `Cn1cc(-c2ccc3[nH]c4c(c3c2)-c2nc(N)ncc2CCC4)cn1` [compound 13, 11-(1-Methyl-1H-pyrazol-4-yl)-5,6,7,8-tetrahydropyrimido[4′,5′:3,4]cyclohepta[1,2-b]indol-2-amine], in the series with 403 WT human kinases, the “# scanMAX kinases with PoC < 10” value was 8.
Regarding `Cn1cc(-c2ccc3[nH]c4c(c3c2)-c2nc(N)ncc2CC4)cn1` [compound 12, 10-(1-Methyl-1H-pyrazol-4-yl)-6,7-dihydro-5H-pyrimido[5,4-c]carbazol-2-amine], the “# scanMAX kinases with PoC < 10” value with 403 WT human kinases is reported as 7.
Turning to `COC(C)(C)C#Cc1ccc2[nH]c3c(c2c1)-c1nc(N)ncc1CCC3` [compound 20, 11-(3-Methoxy-3-methylbut-1-yn-1-yl)-5,6,7,8-tetrahydropyrimido[4′,5′:3,4]cyclohepta[1,2-b]indol-2-amine], the “# scanMAX kinases with PoC < 10” value with 403 WT human kinases is 11–14.
With `Nc1ncc2c(n1)-c1c([nH]c3ccc(C#Cc4ccncc4)cc13)CC2` [compound 4, 10-(Pyridin-4-ylethynyl)-6,7-dihydro-5H-pyrimido[5,4-c]carbazol-2-amine], in the series on 403 WT human kinases, the “# scanMAX kinases with PoC < 10” value came out at 1.
Same read-out and setting: with `CC(C)C(O)C#Cc1ccc2[nH]c3c(c2c1)-c1nc(N)ncc1CC3` (stereo not shown) [compound 10, 1-(2-Amino-6,7-dihydro-5H-pyrimido[5,4-c]carbazol-10-yl)-4-methylpent-1-yn-3-ol] the figure was 11; with `CC(C)(O)C#Cc1ccc2[nH]c3c(c2c1)-c1nc(N)ncc1CCC3` [AMG28, 4-(2-Amino-5,6,7,8-tetrahydropyrimido[4′,5′:3,4]cyclohepta[1,2-b]indol-11-yl)-2-methylbut-3-yn-2-ol, reference compound], 21; with `Cn1cncc1C#Cc1ccc2[nH]c3c(c2c1)-c1nc(N)ncc1CCCC3` [compound 27, 12-((1-Methyl-1H-imidazol-5-yl)ethynyl)-6,7,8,9-tetrahydro-5H-pyrimido[4′,5′:3,4]cycloocta[1,2-b]indol-2-amine], 0.
On to `CN(C)CC#Cc1ccc2[nH]c3c(c2c1)-c1nc(N)ncc1CCC3` [compound 17, 11-(3-(Dimethylamino)prop-1-yn-1-yl)-5,6,7,8-tetrahydropyrimido[4′,5′:3,4]cyclohepta[1,2-b]indol-2-amine], for which the IC50 is less than 100 nM on PIKfyve [2]; less than 1000 nM against PIKfyve [1] (PIKfyve NanoBRET IC50, bound stated with SGC probe criteria); 265 nM on MYLK4. Further, the “effect on cell viability in DBT cells” value in the series with DBT cells was “no significant effect on cell viability up to 10 μM”. Besides, the entries for the “His6-SARS-CoV-2 spike protein uptake” value in series [3], in [6] and in [7] were “significantly reduced spike protein uptake”, “efficiently reduced spike protein uptake” and “efficiently reduced spike protein uptake”, respectively. Moreover, in [4], the “entry of lentivirus pseudotyped with SARS-CoV-2 spike glycoprotein” value is listed as “inhibition of pseudoviral entry”. Further, in the series on bald GFP lentivirus, the “entry of bald lentivirus” value is “entry of bald lentivirus was not impacted”. Further, in the series on SH-SY5Y cells, the “vacuoles in LysoTracker-stained cells” value is listed as “vacuoles are present”.
Take `CC(C)(O)C#Cc1ccc2[nH]c3c(c2c1)-c1nc(N)ncc1CC3` [compound 1, 4-(2-Amino-6,7-dihydro-5H-pyrimido[5,4-c]carbazol-10-yl)-2-methylbut-3-yn-2-ol]: the “# scanMAX kinases with PoC < 10” value with 403 WT human kinases stood at 20.
The same measure, in the same setting: with `CC(C)(O)CC#Cc1ccc2[nH]c3c(c2c1)-c1nc(N)ncc1CCC3` [compound 24, 5-(2-Amino-5,6,7,8-tetrahydropyrimido[4′,5′:3,4]cyclohepta[1,2-b]indol-11-yl)-2-methylpent-4-yn-2-ol] the figure was 11–14; with `CC(C)(O)C#Cc1ccc2[nH]c3c(c2c1)-c1nc(N)ncc1CCCC3` [compound 2, 4-(2-Amino-6,7,8,9-tetrahydro-5H-pyrimido[4′,5′:3,4]cycloocta[1,2-b]indol-12-yl)-2-methylbut-3-yn-2-ol], 3; with `Nc1ncc2c(n1)-c1c([nH]c3ccc(-c4ccc(F)cc4)cc13)CCCC2` [compound 9, 12-(4-Fluorophenyl)-6,7,8,9-tetrahydro-5H-pyrimido[4′,5′:3,4]cycloocta[1,2-b]indol-2-amine], 2.
The same measure, in the same setting: with `Nc1ncc2c(n1)-c1c([nH]c3ccc(-c4ccc(F)cc4)cc13)CC2` [compound 7, 10-(4-Fluorophenyl)-6,7-dihydro-5H-pyrimido[5,4-c]carbazol-2-amine] the figure was 3; with `CC(C)C(O)C#Cc1ccc2[nH]c3c(c2c1)-c1nc(N)ncc1CCC3` (stereo not shown) [compound 11, 1-(2-Amino-5,6,7,8-tetrahydropyrimido[4′,5′:3,4]cyclohepta[1,2-b]indol-11-yl)-4-methylpent-1-yn-3-ol], 7; with `CC(C)(C#Cc1ccc2[nH]c3c(c2c1)-c1nc(N)ncc1CCC3)CO` [compound 23, 4-(2-Amino-5,6,7,8-tetrahydropyrimido[4′,5′:3,4]cyclohepta[1,2-b]indol-11-yl)-2,2-dimethylbut-3-yn-1-ol], 11–14.
As for `CN(C)CC#Cc1ccc2[nH]c3c(c2c1)-c1nc(N)ncc1CCCC3` [compound 29, 12-(3-(Dimethylamino)prop-1-yn-1-yl)-6,7,8,9-tetrahydro-5H-pyrimido[4′,5′:3,4]cycloocta[1,2-b]indol-2-amine], the “# scanMAX kinases with PoC < 10” value in the series with 403 WT human kinases came to 0.
Molecule `CC(O)C#Cc1ccc2[nH]c3c(c2c1)-c1nc(N)ncc1CCC3` (stereo not shown) [compound 21, 4-(2-Amino-5,6,7,8-tetrahydropyrimido[4′,5′:3,4]cyclohepta[1,2-b]indol-11-yl)but-3-yn-2-ol] showed an IC50 on PIKfyve [1] (setting [8]) of less than 20 nM.
Consider `CCC(=O)Nc1cc(Nc2cc(NC3CC3)n3ncc(C#N)c3n2)ccc1C` [SGC-CK2-1, reference compound], for which the “His6-SARS-CoV-2 spike protein uptake” value in [3] was “efficiently decreased spike protein uptake”.

These data come from PMC9574855 (Journal of Medicinal Chemistry, 2022).
